Measured values: the METLIN SMRT retention time set (Domingo-Almenara et al. 2019)

Assay: gradient 5% acetonitrile 3 min, to 50% in 2 min, to 85% in 15 min, held 3 min, 100 µL/min
Conditions: column: Zorbax Extend-C18 2.1 x 50 mm; eluents: water / acetonitrile, 0.1% formic acid
Summary of the method: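 In both positive and negative ionization mode, a quadrupole time-of-flight mass spectrometer coupled to HPLC analyzed pure standards run in mixtures of ~100 molecules. The Zorbax Extend-C18 column (2.1 × 50 mm, 1.8 μm) was operated at 100 μL/min with water and acetonitrile, each containing 0.1% formic acid. The dead volume was 40 μL and the dwell volume 900 μL. Retention time came from adduct peaks that were computationally picked and individually inspected by hand.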

Compound | RP-LC retention time
COc1cccc(-c2nc(-c3cccc(-c4ccn[nH]4)c3)no2)c1 | 1010 s
Cc1ccc(C(=O)N(CCc2cscn2)Cc2cccnc2)cc1C | 636 s
Cc1ccc(-c2nc(NCCC3=CCCCC3)c3ccccc3n2)cc1 | 974 s
CC(C)S(=O)(=O)c1cc2c(cc1NC(=O)c1ccccc1F)n(C)c(=O)n2C | 799 s
COc1ccc(NC(=O)N2CCN(c3cc(-c4ccc(OC)c(OC)c4)ncn3)CC2)cc1 | 620 s
O=C(NCc1cc(F)cc(F)c1)C1CCN(c2cncnc2N2CCCCC2)CC1 | 700 s
CC(C)c1nc(C2CN(C(=O)Nc3ccc(Cl)cc3)C2)n(C)n1 | 704 s
Cc1ccc(Nc2ncccc2S(N)(=O)=O)c(F)c1 | 840 s
Cc1cc(C(=O)N2CCCCCC2c2nnc(C)o2)no1 (configuration not stated) | 698 s
O=C(CCn1cnc2cc(-c3noc(-c4cncc(Br)c4)n3)ccc21)N1CCCCCC1 | 814 s
CCCNc1cc(N2CCC(CCC(=O)NC3CCN(C(=O)OCC)CC3)CC2)ncn1 | 627 s
CN(C)CCn1nnc2cc(-c3noc(-c4cccc(C#N)c4)n3)ccc21 | 633 s
Cc1c(C(=O)Nc2cc(=O)n(C)c(=O)n2C)cccc1[N+](=O)[O-] | 652 s
CC(C(=O)NCCCN1CCCCC1)n1c2ccccc2c2cnn(C)c(=O)c21 (configuration not stated) | 618 s
CCc1noc(-c2ccnc(-n3ncc(C(=O)NCC4CC4)c3C)c2)n1 | 1110 s
COc1ccc(C(=O)N2CCC3(CC2)NC(=O)c2cc(F)ccc2N3C)cc1 | 730 s
O=S(=O)(CCc1ccccc1)N1CCN(c2ccc3nncn3n2)CC1 | 664 s
COc1ccc2oc(-c3csc(NC(=O)c4c(F)cccc4F)n3)cc2c1 | 1010 s
C=CCN1CCN(c2nc3cc(C(=O)OC)ccc3c(=O)n2-c2cccc(Cl)c2)CC1 | 681 s
O=C([C@@H]1C[C@H](Oc2ccccc2)CN1C(=O)c1ccoc1)N1CCCC1 | 733 s

Compound | RP-LC retention time
COC(=O)c1c(C)[nH]c(C(=O)N2CCCC(C(=O)NCCc3ccco3)C2)c1C (configuration not stated) | 698 s
COc1ccc(C2c3c(n(C)c4ccccc34)C(=O)N2CC(=O)N2CCN(c3ccccn3)CC2)cc1 (configuration not stated) | 710 s
CCc1nn2c(CNS(=O)(=O)c3cccc(Cl)c3)c(-c3ccccc3)nc2s1 | 971 s
CCOc1ccc(C2Cn3nnc(-c4nc(C)no4)c3CO2)cc1 (configuration not stated) | 917 s
COc1ccc(S(=O)(=O)N2CCCC(C(=O)NC(C)C)C2)cc1OC (configuration not stated) | 720 s
Cc1ccc(CCNC(=O)C2CCCN2S(=O)(=O)c2ccc3c(c2)C(C)(C)C(=O)N3C)cc1 (configuration not stated) | 896 s
COc1ccc(-c2noc(C3(NC(=O)c4cc(C)cc(C)c4)CCCCC3)n2)cc1 | 1250 s
Cc1sc2ccn(CC(C)C)c(=O)c2c1C(=O)N1CCN(C2CCCCC2)CC1 | 642 s
COc1cc(N2CCN(S(=O)(=O)c3ccccc3F)CC2)nc(OC)n1 | 816 s
Cc1ccc(Cn2cccc2C(=O)C(=O)NCc2ccc(C)o2)cc1 | 1080 s
Cc1noc(C)c1S(=O)(=O)NCCn1c(C)cnc1-c1ccncc1 | 570 s
COc1cc(OC)cc(-c2nnc(Cc3nc(-c4cccc(Cl)c4)no3)o2)c1 | 1130 s
C=CCN1C(=O)COc2ccc(-c3csc(NC(=O)c4ccc(C)cc4)n3)cc21 | 1050 s
CN1c2cc(Cl)ccc2C(=O)NC12CCN(C(=O)NCc1ccc(F)cc1)CC2 | 820 s
O=C(Cn1c(=O)n(C2CCCCC2)c2ncccc21)NCCCN1CCOCC1 | 612 s
COc1ccc2nc(NC3=NCN(CCc4cccs4)CN3)nc(C)c2c1 | 743 s
Cn1nc(C(=O)N2CCCC2)c2c1CCN(C(=O)CCC(=O)NCCN1CCCCCC1)C2 | 586 s
Cc1cn2c(S(=O)(=O)NC3CCCCC3)c(C(C)C)nc2s1 | 999 s
O=C1CCCCC(CNC(=O)c2cccs2)N1 (configuration not stated) | 616 s
O=C1Nc2ccccc2OC1C(=O)N1CCN(c2ccc(Cl)cc2)CC1 (configuration not stated) | 889 s

Continued, values first:

RP-LC retention time | Compound
819 s | O=C(c1ccsc1)N1CCCC1(CO)Cc1ccccc1 (configuration not stated)
1050 s | Cn1c(C(=O)Nc2cccc(Cl)c2)cc2c(=O)oc3ccccc3c21
1210 s | Cc1cccc(Sc2nccnc2N2CCCC(C(=O)NCc3ccc(C)c(C)c3)C2)c1 (configuration not stated)
860 s | O=C(NCCc1csc(-c2ccccc2)n1)c1cccs1
1090 s | CCc1cc(C(=O)Nc2ccc(C)cc2C)nc2ccnn12
565 s | Cc1cccn2cc(C(=O)NCc3ccc(N(C)C)cc3)nc12
792 s | O=C(NCCc1csc2nc(-c3cccs3)nn12)c1c(F)cccc1Cl
930 s | O=S(=O)(c1cccn2c(SCc3cccc(Br)c3)nnc12)N1CCCCC1
620 s | O=C(c1cccnc1)N1CCCCC1c1nncn1Cc1ccccc1 (configuration not stated)
641 s | CCc1nc2cccnc2n1CCN1CCN(C(=O)Nc2ccccc2Br)CC1
583 s | Cc1cc(CN2CCC(CNC(=O)Cc3ccccc3Cl)CC2)c(C)o1
709 s | O=C(Nc1ccc(F)c(F)c1)C1CCN(c2cc(N3CCSCC3)ncn2)CC1
602 s | CCOc1cccc(CNC(=O)c2cn3c(n2)CCCC3)c1
760 s | O=C(Cc1c(F)cccc1Cl)NC1CCN(c2cc(-c3ccc(F)cc3)[nH]n2)C1 (configuration not stated)
993 s | COc1ccc(-c2noc(C3CCCN(S(=O)(=O)c4ccc(C)cc4)C3)n2)cc1OC (configuration not stated)
986 s | NC(=O)c1cnc(-c2ccc(Cl)cc2)n(CC(=O)N2CCCc3ccccc32)c1=O
760 s | O=C(NCc1cccc(Cl)c1)C1CCN(C(=O)c2ncn3c2COC(c2ccccc2)C3)CC1 (configuration not stated)
1070 s | CC1CCc2c(sc3ncn4c(=O)n(CC(=O)N5CCc6ccccc6C5)nc4c23)C1 (configuration not stated)
892 s | CCn1cc(-c2nc(CC(=O)Nc3ccccc3)cs2)c2cccnc21
747 s | O=C(NCC1CC1)C1CCN(c2nc3ccsc3c(=O)n2-c2ccccc2)CC1
829 s | Cc1ccc(C2=NC3(CCN(C(=O)Cc4cccs4)CC3)ON2)cc1
622 s | Cc1ccccc1NC(=O)N1CC(F)(F)C[C@H]1CN1CCCC1
885 s | O=C(Cn1c(C(F)(F)F)nc2cc3c(cc21)OCCO3)NCc1ccc(Cl)cc1
902 s | CC1CCN(C(=O)C2CCN(c3ccc4nnc(-c5ccccc5)n4n3)CC2)CC1
905 s | O=C(Cc1cccc(C(F)(F)F)c1)Nc1cccn2c(C3CCC3)nnc12
917 s | O=C(Cn1cnc(-c2noc(-c3ccc(F)cc3)n2)c1)NCc1ccc(Cl)cc1
724 s | COc1ccc(-c2nc3ccccn3c2NCc2ccccc2)cc1
